Measurements: ChEMBL document CHEMBL3351613, “Indolylarylsulfones carrying a heterocyclic tail as very potent and broad spectrum HIV-1 non-nucleoside reverse transcriptase inhibitors” (J Med Chem, 2014)
The source made the active and inactive calls. The calls are words filed in the database; no cut-off is given here.

Tests used:
in vitro = conditions: human, MT4 cells
Description: Selectivity index, ratio of CC50 for human MT4 cells to EC50 for HIV1 NL4-3 infected in human MT4 cells

[1] = biological target: T1, Human immunodeficiency virus type 1 reverse transcriptase (Human immunodeficiency virus 1, UniProt Q72547)
Description: Inhibition of wild type HIV1 reverse transcriptase assessed as reduction in enzyme activity

[2] = tested on: Human immunodeficiency virus 1; type: functional, organism-based; conditions: Human immunodeficiency virus 1, NL4-3, MT4
[3] = biological target: Human immunodeficiency virus type 1 reverse transcriptase (Human immunodeficiency virus 1, UniProt Q72547, Y181I)
[4] = Cytotoxic activity against human MT4 cells by MTT assay; type: cell-based
[5] = tested on: Human immunodeficiency virus 1; type: functional, organism-based; conditions: Human immunodeficiency virus 1, NL4-3, MT4; remark: listed apart in the source
[6] = biological target: Human immunodeficiency virus type 1 reverse transcriptase (Human immunodeficiency virus 1, UniProt Q72547, K103N)
Description: Inhibition of wild type HIV1 reverse transcriptase K103N mutant assessed as reduction in enzyme activity

[7] = tested on: Human immunodeficiency virus 1; experiment: Antiviral activity against HIV1 NL4-3 infected in human MT4 cells assessed as reduction in virus-induced cell death by MTT assay; type: functional, organism-based; conditions: Human immunodeficiency virus 1, NL4-3, MT4
[8] = tested on: Human immunodeficiency virus 1; type: functional, organism-based; conditions: Human immunodeficiency virus 1, NL4-3, MT4; remark: listed apart in the source
[9] = tested on: Human immunodeficiency virus 1; experiment: Antiviral activity against HIV1 NL4-3 expressing reverse transcriptase L100I mutant infected in human MT4 cells assessed as reduction in virus-induced cell death by MTT assay; type: functional, organism-based; conditions: Human immunodeficiency virus 1, NL4-3, MT4
[10] = tested on: Human immunodeficiency virus 1; experiment: Antiviral activity against HIV1 3B infected in human CEM cells assessed as protection against virus-induced cytopathicity by giant cell formation assay; type: functional, organism-based; conditions: Human immunodeficiency virus 1, 3B, CCRF-CEM
[11] = tested on: Human immunodeficiency virus 1; experiment: Antiviral activity against HIV1 NL4-3 expressing reverse transcriptase K103N mutant infected in human MT4 cells assessed as reduction in virus-induced cell death by MTT assay; type: functional, organism-based; conditions: Human immunodeficiency virus 1, NL4-3, MT4
[12] = biological target: Human immunodeficiency virus type 1 reverse transcriptase (Human immunodeficiency virus 1, UniProt Q72547, L100I)
Description: Inhibition of wild type HIV1 reverse transcriptase L100I mutant assessed as reduction in enzyme activity

[13] = tested on: Human immunodeficiency virus 2; experiment: Antiviral activity against HIV2 ROD infected in human CEM cells assessed as protection against virus-induced cytopathicity by giant cell formation assay; type: functional, organism-based; conditions: Human immunodeficiency virus 2, ISOLATE ROD, CCRF-CEM
[14] = biological target: Human immunodeficiency virus type 1 reverse transcriptase (Human immunodeficiency virus 1, UniProt Q72547, V106A); experiment: Inhibition of […] HIV1 reverse transcriptase V106A mutant assessed as reduction in enzyme activity
[15] = biological target: T1, Human immunodeficiency virus type 1 reverse transcriptase; remark: listed apart in the source
[16] = tested on: Human immunodeficiency virus 1; experiment: Antiviral activity against HIV1 Clade A (UG273) infected in human PBMC assessed as reduction in p24 antigen production; type: functional, organism-based; conditions: Human immunodeficiency virus 1, Clade A (UG273)
[17] = tested on: Human immunodeficiency virus 1; experiment: Antiviral activity against HIV1 Clade B (BaL) infected in human PBMC assessed as reduction in p24 antigen production; type: functional, organism-based; conditions: Human immunodeficiency virus 1, Clade B (BaL)
[18] = tested on: Human immunodeficiency virus 1; experiment: Antiviral activity against HIV1 Clade G (HH8793) infected in human PBMC assessed as reduction in p24 antigen production; type: functional, organism-based; conditions: Human immunodeficiency virus 1, Clade G (HH8793)
[19] = tested on: Human immunodeficiency virus 1; experiment: Antiviral activity against HIV1 Clade D (UG270) infected in human PBMC assessed as reduction in p24 antigen production; type: functional, organism-based; conditions: Human immunodeficiency virus 1, Clade D (UG270)
[20] = tested on: Human immunodeficiency virus 2; experiment: Antiviral activity against HIV2 ROD infected in human PBMC cells assessed as reduction in p24 antigen production; type: functional, organism-based; conditions: ISOLATE ROD
[21] = tested on: Human immunodeficiency virus 1; experiment: Antiviral activity against HIV1 Clade F (BZ162) infected in human PBMC assessed as reduction in p24 antigen production; type: functional, organism-based; conditions: Human immunodeficiency virus 1, Clade F (BZ162)
[22] = tested on: Human immunodeficiency virus 1; experiment: Antiviral activity against HIV1 Clade C (DJ259) infected in human PBMC assessed as reduction in p24 antigen production; type: functional, organism-based; conditions: Human immunodeficiency virus 1, Clade C (DJ259)
[23] = tested on: Human immunodeficiency virus 1; experiment: Antiviral activity against HIV1 Clade A/E (ID12) infected in human PBMC assessed as reduction in p24 antigen production; type: functional, organism-based; conditions: Human immunodeficiency virus 1, Clade A/E (ID12)

Row | Compound | selectivity ratio (in vitro) | IC50 [1] | EC50 [2] | IC50 [3] | CC50 [4] | EC50 [5] | IC50 [6] | EC50 [7] | EC50 [8] | EC50 [9] | EC50 [10] | EC50 [11] | IC50 [12] | EC50 [13] | also measured
1 | Cc1cc(C)cc(S(=O)(=O)c2c(C(=O)NCc3ccncn3)[nH]c3ccc(Cl)cc23)c1 | > 250000 | 42 nM | 132 nM | 4.2 nM | > 55000 nM | 50.6 nM | 96 nM | 0.22 nM | 2.2 nM | – | – | – | – | – | –
2 | O=C1Nc2ccc(Cl)cc2[C@@](C#CC2CC2)(C(F)(F)F)O1 [EFAVIRENZ] | – | – | > 317 nM | – | > 15800 nM | – | – | – | – | 22 nM | – | – | – | – | –
3 | Cc1cc(C)cc(S(=O)(=O)c2c(C(=O)NCCn3c([N+](=O)[O-])cnc3C)[nH]c3ccc(Cl)cc23)c1 | 40900 | 44 nM | > 48500 nM | 131 nM | 25400 nM | – | 640 nM | 0.62 nM | 670 nM | 140 nM | 4.1 nM | 140 nM | 160 nM | > 10000 nM | –
4 | Cc1cc(C)cc(S(=O)(=O)c2c(C(=O)Nc3ccncc3)[nH]c3ccc(Cl)cc23)c1 | 89600 | – | > 20600 nM | – | 20600 nM | 1270 nM | – | 0.23 nM | 16 nM | – | – | – | – | – | –
5 | Cc1cc(C)cc(S(=O)(=O)c2c(C(=O)NN(C)c3ccccc3)[nH]c3ccc(Cl)cc23)c1 | 21000 | 16 nM | > 42700 nM | > 20000 nM | 44100 nM | > 42700 nM | 234 nM | 2.1 nM | 1470 nM | – | – | 64.1 nM | – | – | –
6 | Cc1cc(C#N)cc(C)c1Oc1nc(Nc2ccc(C#N)cc2)nc(N)c1Br [ETRAVIRINE] | – | – | 16 nM | – | > 30600 nM | 33 nM | – | 3.7 nM | 6 nM | – | – | 16 nM | – | – | –
7 | Cc1cc(C)cc(S(=O)(=O)c2c(C(=O)NNc3ccncc3)[nH]c3ccc(Cl)cc23)c1 | 727 | > 20000 nM | 55000 nM | > 20000 nM | 30300 nM | – | > 20000 nM | 41.7 nM | > 20000 nM | – | 730 nM | 16000 nM | 9400 nM | ≥ 50000 nM | –
8 | Cc1cc(C)cc(S(=O)(=O)c2c(C(=O)NC(C)c3ccccc3)[nH]c3ccc(Cl)cc23)c1 (stereo unspecified) | > 206000 | – | – | 8230 nM | > 53500 nM | – | – | – | – | 26 nM | – | – | 70 nM | > 10000 nM | –
9 | Cc1cc(C)cc(S(=O)(=O)c2c(C(=O)NCc3cccs3)[nH]c3ccc(Cl)cc23)c1 | > 77800 | 30 nM | > 54500 nM | > 20000 nM | > 54500 nM | – | > 20000 nM | 0.7 nM | 160 nM | 7.1 nM | 5.2 nM | 9.1 nM | 100 nM | > 10000 nM | –
10 | Cc1cccc(C)c1S(=O)(=O)c1c(C(=O)NCc2ccncc2)[nH]c2ccc(Cl)cc12 | > 167 | – | > 55100 nM | – | > 55100 nM | > 55100 nM | – | 330 nM | > 55100 nM | – | – | > 55100 nM | – | – | –
11 | Cc1cc(C)cc(S(=O)(=O)c2c(C(=O)Nc3cccc(N)c3)[nH]c3ccc(Cl)cc23)c1 | 108000 | 19 nM | 2140 nM | 226 nM | 23800 nM | 947 nM | 310 nM | 0.22 nM | 66 nM | 57 nM | 17 nM | 4.4 nM | – | – | –
12 | Cc1cc(C)cc(S(=O)(=O)c2c(C(=O)NCc3ccccc3)[nH]c3ccc(Cl)cc23)c1 | 173000 | – | 1920 nM | > 20000 nM | 38000 nM | 90 nM | > 20000 nM | 0.22 nM | – | – | – | 0.9 nM | – | – | –
13 | Cc1cc(C)cc(S(=O)(=O)c2c(C(=O)NC(C)c3cccnc3)[nH]c3ccc(Cl)cc23)c1 (racemic) | 91000 | 100 nM | 8480 nM | > 20000 nM | 54600 nM | – | 120 nM | 0.6 nM | 220 nM | 20 nM | 6.6 nM | 34 nM | 20 nM | > 10000 nM | –
14 | O=C(NCc1ccncc1)c1[nH]c2ccc(Cl)cc2c1S(=O)(=O)c1c(Cl)cccc1Cl | > 62400 | – | > 50500 nM | – | > 50300 nM | > 50500 nM | – | 0.81 nM | 2530 nM | – | – | 5260 nM | – | – | –
15 | Cc1cc(C)cc(S(=O)(=O)c2c(C(=O)NC(C)c3cccs3)[nH]c3ccc(Cl)cc23)c1 (stereo unspecified) | 162000 | 27 nM | 2640 nM | – | 32300 nM | 347 nM | 79 nM | 0.2 nM | 68 nM | – | – | 2.1 nM | – | – | –
16 | Cc1cc(C)cc(S(=O)(=O)c2c(C(=O)NC(C)c3ccncc3)[nH]c3ccc(Cl)cc23)c1 (racemic) | 151000 | 40 nM | 1110 nM | 3550 nM | 30200 nM | – | 220 nM | 0.2 nM | 87 nM | 4.7 nM | 4.1 nM | 9.4 nM | 30 nM | > 10000 nM | IC50 [14]: 40 nM; IC50 [15]: 3500 nM
17 | Cc1cccc(C)c1S(=O)(=O)c1c(C(N)=O)[nH]c2ccc(Cl)cc12 | > 1110 | – | > 48900 nM | – | > 48900 nM | > 48900 nM | – | 44.1 nM | 42700 nM | – | – | > 49400 nM | – | – | –
18 | Cc1cc(C)cc(S(=O)(=O)c2c(C(=O)NCc3ccco3)[nH]c3ccc(Cl)cc23)c1 | > 282000 | 3 nM | 971 nM | 234 nM | > 56400 nM | 45 nM | 9 nM | 0.2 nM | 0.8 nM | – | – | – | – | – | –
19 | Cc1cc(C)cc(S(=O)(=O)c2c(C(=O)NCCc3cccs3)[nH]c3ccc(Cl)cc23)c1 | > 62900 | 70 nM | > 52900 nM | > 20000 nM | > 52900 nM | – | 42 nM | 0.84 nM | 160 nM | 5.4 nM | 3.4 nM | 21 nM | 1 nM | > 50000 nM | –
20 | Cc1cc(C)cc(S(=O)(=O)c2c(C(=O)NCCc3ccccc3)[nH]c3ccc(Cl)cc23)c1 | 18000 | – | > 53500 nM | > 20000 nM | 37900 nM | > 36400 nM | – | 2.1 nM | 107 nM | – | – | 21 nM | – | – | –
21 | Cc1cc(C)cc(S(=O)(=O)c2c(C(=O)NC(C)c3ccccn3)[nH]c3ccc(Cl)cc23)c1 (racemic) | 91000 | 64 nM | 6000 nM | 11100 nM | 54600 nM | – | 100 nM | 0.6 nM | 230 nM | 45 nM | 3.2 nM | 34 nM | 30 nM | > 10000 nM | –
22 | NC(=O)c1[nH]c2ccc(Cl)cc2c1S(=O)(=O)c1c(Cl)cccc1Cl | 64100 | – | 16000 nM | – | 16000 nM | > 16000 nM | – | 0.25 nM | 5170 nM | – | – | > 16000 nM | – | – | –
23 | Cc1ccnc2c1NC(=O)c1cccnc1N2C1CC1 [NEVIRAPINE] | – | – | > 3760 nM | – | > 18800 nM | > 3760 nM | – | 112 nM | > 3760 nM | 60 nM | – | > 3760 nM | – | – | –
24 | Cc1cc(C)cc(S(=O)(=O)c2c(C(=O)N[C@@H](C)c3ccncc3)[nH]c3ccc(Cl)cc23)c1 | – | 40 nM | 4120 nM | – | – | 5170 nM | 700 nM | 0.2 nM | 128 nM | – | – | 4.3 nM | 20 nM | – | EC50 [16]: 5.2 nM; EC50 [17]: 2 nM; IC50 [14]: 55 nM; EC50 [18]: 3.6 nM; IC50 [15]: 110000 nM; EC50 [19]: 4.3 nM; Activity [20]: inactive; EC50 [21]: 4.9 nM; EC50 [22]: 1.4 nM; EC50 [23]: 4.1 nM
